Data published in patent publication US20250305981A1, “SWITCHING PEPTIDE AND IMMUNOASSAY USING SAME” (OPTOLANE TECHNOLOGIES INC., priority 2021, published 2025).

How the values were obtained:
[1] = tested on: Fab region of rabbit anti-HRP antibodies; assay: Papain treatment of immobilized antibody bound to fluorescently labeled switching peptide (FIG. 6B); format: binding; details: after vs before papain
Excerpt: In the case of this experiment, after immobilization of the antibodies (rabbit anti-HRP antibodies) on the microplate, binding between the antibody and the switching peptide was induced by treatment with a fluorescently labeled switching peptide, the unbound switching peptide was removed, and then the Fab region was hydrolyzed from the immobilized antibodies by adding papain, which is a protease. Referring to FIG. 6A, the fluorescence at the bottom (B) of the microplate is expected to decrease after the papain reaction because the fluorescently labeled switching peptides are bound to the Fab region of antibodies, and the fluorescence in the solution is expected to increase because the Fab region to which the switching peptide is bound is hydrolyzed and dissolved into the solution. This prediction is proven to be true from the graphs of FIG. 6B.

[2] = molecular target: anti-HRP antibody from a rabbit; assay: One-step immunoassay with fluorescently labeled peptides, varying HRP antigen concentration (FIG. 7); format: binding; details: estimated; HRP antigen 0.3 to 100 μM, fluorescence in solution; read-out: Equilibrium dissociation constant
Excerpt: FIG. 7A is a schematic diagram for explaining an immunoassay method using fluorescently labeled peptide compounds of Example 1, and FIGS. 7B and 7C are graphs illustrating the fluorescence intensities in a solution and at a bottom of the microplate depending on a concentration of the antigen measured by the immunoassay method illustrated in FIG. 7A. In this experiment, an anti-HRP antibody from a rabbit immobilized on a microplate was used as the binding antibody and HRP was used as the antigen.
Referring to FIGS. 7A to 7C, as a result of performing immunoassay while varying the concentration of antigen HRP from 0.3 to 100 μM, for the four types of switching peptides (H1, H2, L1, L2), an increase in the fluorescence intensity in the solution was observed depending on the concentration of the antigen (HRP).
Equilibrium dissociation constants of the H1, H2, L1, and L2 peptides were estimated to be 1.65, 3.11, 3.29, and 1.48 μM, and the difference in the dissociation constant for each switching peptide means that each switching peptide has a different detection area for each antigen.

Anti-HBsAg antibody(g) = assay: Fluorescence before/after antigen binding, peptide bound to immobilized antibody (Table 2); parameters: species or system goat; details: for fluorescence intensity at the bottom of the plate decreased by: after treatment with antigen HBsAg; for Bottom (B) of microplate After antigen binding, fluorescence intensity / Bottom (B) of microplate Before antigen binding, fluorescence intensity / Bottom (B) of microplate Change (%) / In solution (S) After antigen binding, fluorescence intensity / In solution (S) Before antigen binding, fluorescence intensity: antigen HBsAg, fluorescently labeled peptide
Anti-hCG antibody(m) = assay: as above; parameters: species or system mouse; details: fluorescently labeled peptide
Anti-HRP antibody(r) = assay: as above; parameters: species or system rabbit; details: fluorescently labeled peptide
Anti-CRP antibody(r) = assay: as above; parameters: species or system rabbit; details: fluorescently labeled peptide
L2 peptide = assay: FRET test of specific interaction between H1 and L2 peptides on microplate; format: binding; details: TAMRA-H1 and FAM-L2, concentration of H1 peptide varied
Excerpt: (§1) Here, at the ends of the L1 and L2 peptides, a first fluorescent label, FAM (λex=488 nm, λem=532 nm) was modified, and at the ends of the H1 and H2 peptides, a second fluorescent label, TAMRA (λex=532 nm, λem=570 nm) was modified.

[3] = Dynamic laser scattering (DLS) of binding antibody bound to ferrocene-labeled switching peptide (FIG. 8A); format: physicochemical; details: compared with antibody bound to L2 or H1 peptide
Experimental: FIG. 8A is a result obtained by performing dynamic laser scattering (DLS) to compare the hydrodynamic radius of the switching peptides of the present disclosure. Referring to FIG. 8A, it can be confirmed that DLS was performed using intensity measurement of scattered light under monochromatic laser light, and a hydrodynamic radius of the binding antibody bound to the L1 or H2 peptide was smaller than that of the bound antibody bound to the L2 or H1 peptide.

[4] = Diffusion coefficient (Dox) of ferrocene-labeled switching peptides in CV analysis (FIG. 8C); format: physicochemical; details: compared with H1 and L2 peptides
Excerpt: FIG. 8C is a graph obtained by measuring a diffusion coefficient (Dox) of the switching peptides of the present disclosure in CV analysis. […] Therefore, L1 and H2 peptides labeled with ferrocene may be optimal probes for electrochemical immunoassay.

H2 peptide = assay: FRET test of specific interaction between L1 and H2 peptides on microplate; format: binding; details: FAM-L1 and TAMRA-H2, concentration of L1 peptide varied
Excerpt: as §1
Referring to FIG. 4A, the interaction between the L1 and H2 peptides was observed by changing the concentration of the L1 peptide, and the FRET intensity increased with increasing the concentration of the L1 peptide.

Chain of H2 peptide (as listed by the source): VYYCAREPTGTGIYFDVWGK

| Substance | decrease of fluorescence intensity at the bottom of the microplate after papain treatment [1] | increase of fluorescence intensity in the solution after papain treatment [1] | Kd [2] | fluorescence intensity at the bottom of the plate decreased by (Anti-HBsAg antibody(g)) | Bottom (B) of microplate After antigen binding, fluorescence intensity (Anti-HBsAg antibody(g)) | Bottom (B) of microplate Before antigen binding, fluorescence intensity (Anti-HBsAg antibody(g)) | Bottom (B) of microplate Change (%) (Anti-HBsAg antibody(g)) | In solution (S) After antigen binding, fluorescence intensity (Anti-HBsAg antibody(g)) | In solution (S) Before antigen binding, fluorescence intensity (Anti-HBsAg antibody(g)) | Bottom (B) of microplate After antigen binding, fluorescence intensity (Anti-hCG antibody(m)) | Bottom (B) of microplate Before antigen binding, fluorescence intensity (Anti-hCG antibody(m)) | Bottom (B) of microplate Change (%) (Anti-hCG antibody(m)) | In solution (S) After antigen binding, fluorescence intensity (Anti-hCG antibody(m)) | In solution (S) Before antigen binding, fluorescence intensity (Anti-hCG antibody(m)) | In solution (S) Change (%) (Anti-hCG antibody(m)) | Bottom (B) of microplate After antigen binding, fluorescence intensity (Anti-HRP antibody(r)) | Bottom (B) of microplate Before antigen binding, fluorescence intensity (Anti-HRP antibody(r)) | Bottom (B) of microplate Change (%) (Anti-HRP antibody(r)) | In solution (S) After antigen binding, fluorescence intensity (Anti-HRP antibody(r)) | In solution (S) Before antigen binding, fluorescence intensity (Anti-HRP antibody(r)) | further results |
| --- | --- | --- | --- | --- | --- | --- | --- | --- | --- | --- | --- | --- | --- | --- | --- | --- | --- | --- | --- | --- | --- |
| VYYCF QGSHV PFTK [L2, homology to FR3 or FR4 region of the light chain] | 72.5% | 2,452% | 1480 nM | 35.2% | 9856 | 28002 | −64.8% | 15359 | 2279 | 3072 | 33156 | −90.7% | 9402 | 1692 | +456% | 3208 | 12584 | −74.5% | 16135 | 2315 | Bottom (B) of microplate After antigen binding, fluorescence intensity (Anti-CRP antibody(r)): 11236; Bottom (B) of microplate Before antigen binding, fluorescence intensity (Anti-CRP antibody(r)): 20394; Bottom (B) of microplate Change (%) (Anti-CRP antibody(r)): −44.9%; In solution (S) After antigen binding, fluorescence intensity (Anti-CRP antibody(r)): 32187; In solution (S) Before antigen binding, fluorescence intensity (Anti-CRP antibody(r)): 3274; In solution (S) Change (%) (Anti-CRP antibody(r)): +883% |
| SYWIH WVKQR PGQGL EWIGE [H1, homology to FR2 region of the heavy chain] | 84.3% | 2,184% | 1650 nM | 41.1% | 4618 | 11225 | −58.9% | 11453 | 2242 | 1940 | 5646 | −65.6% | 3921 | 1281 | +206% | 1451 | 11840 | −87.7% | 21965 | 2596 | specific interaction (FRET intensity) (L2 peptide): specific interaction; Bottom (B) of microplate After antigen binding, fluorescence intensity (Anti-CRP antibody(r)): 3595; Bottom (B) of microplate Before antigen binding, fluorescence intensity (Anti-CRP antibody(r)): 4912; Bottom (B) of microplate Change (%) (Anti-CRP antibody(r)): −26.8%; In solution (S) After antigen binding, fluorescence intensity (Anti-CRP antibody(r)): 5659; In solution (S) Before antigen binding, fluorescence intensity (Anti-CRP antibody(r)): 2242; In solution (S) Change (%) (Anti-CRP antibody(r)): +152% |
| VYYCA REPTG TGIYF DVWGK [H2, homology to FR3 or FR4 region of the heavy chain] | 58.7% | 2,356% | 3110 nM | 63.9% | 18773 | 29367 | −36.1% | 9136 | 1784 | 23320 | 23320 | −88.5% | 8545 | 1654 | +416% | 1806 | 122230 | −85.2% | 18128 | 2272 | hydrodynamic radius of the binding antibody bound to the peptide [3]: smaller; diffusion coefficient (Dox) [4]: relatively higher; Bottom (B) of microplate After antigen binding, fluorescence intensity (Anti-CRP antibody(r)): 22205; Bottom (B) of microplate Before antigen binding, fluorescence intensity (Anti-CRP antibody(r)): 22205; Bottom (B) of microplate Change (%) (Anti-CRP antibody(r)): −39.5%; In solution (S) After antigen binding, fluorescence intensity (Anti-CRP antibody(r)): 16311; In solution (S) Before antigen binding, fluorescence intensity (Anti-CRP antibody(r)): 2099; In solution (S) Change (%) (Anti-CRP antibody(r)): +677% |
| TYLEW YPQKP GQSPK LLIYK [L1, homology to FR2 region of the light chain] | 84.8% | 1,032% | 3290 nM | 48.7% | 5388 | 11062 | −51.3% | 20501 | 2779 | 1777 | 4630 | −61.6% | 3580 | 1248 | +187% | 1990 | 15608 | −87.3% | 12280 | 2687 | hydrodynamic radius of the binding antibody bound to the peptide [3]: smaller; diffusion coefficient (Dox) [4]: relatively higher; specific interaction (FRET intensity) (H2 peptide): specific interaction; Bottom (B) of microplate After antigen binding, fluorescence intensity (Anti-CRP antibody(r)): 3456; Bottom (B) of microplate Before antigen binding, fluorescence intensity (Anti-CRP antibody(r)): 6719; Bottom (B) of microplate Change (%) (Anti-CRP antibody(r)): −48.6%; In solution (S) After antigen binding, fluorescence intensity (Anti-CRP antibody(r)): 6505; In solution (S) Before antigen binding, fluorescence intensity (Anti-CRP antibody(r)): 741; In solution (S) Change (%) (Anti-CRP antibody(r)): +778% |
